Patent EP1506960B1, “Indole compounds as inhibitors of tubulin polymerisation for the treatment of angiogenesis-related disorders” (National Health Research Institutes, priority 2003, dated 2005)
Read-outs that look alike come from different tables or passages of the source.

What was measured:
[1] = test system: KB; assay: Cell growth inhibition assay (cytotoxicity), KB cell line; settings: Homo sapiens, 72 h, read-out: Cytotoxicity KB
Experimental: (§1) Cell Growth Inhibition Assay: MCF-7 breast carcinoma cells were maintained in plastic dishes in DMEM medium supplemented with 10% fetal bovine serum. For in vitro treatment, tumor cells were seeded in […] of culture medium/well in 96-well plates to a final cell density of 6 x 10^3 cell/mL and incubated in a CO2 incubator at 37 °C for 24 h. The cells were treated with at least five different concentrations of a test indole compound, and incubated in a CO2 incubator at 37 °C for 72 h. The number of viable cells was estimated using MTS assay and absorbance was measured at 490 nm. Cytotoxicity of the test compounds was expressed in terms of IC50 values. The values presented represent averages of three independent experiments, each with duplicate samples.
(§2) Indole compounds were tested against several panels of drug-resistant cell lines. It is well known that several anti-mitotic agents, including vinca alkaloid (vincristine, vinblastine) and taxol, have been introduced in clinic to treat various human cancers. […] The mechanisms responsible for taxol resistance include overexpression of p-glycoprotein and mutation of tubulin.
(§3) The mechanisms responsible for VP16-resistance (KB7D) were down-regulation of topoisomerase II and overexpression of MRP 1.

[2] = test system: KB-Vin10; assay: cells; settings: read-out: Cytotoxicity KB -Vin10
Experimental: as §1, §2, §3

[3] = test system: KB7D; assay: cells; settings: Homo sapiens, 72 h, read-out: Cytotoxicity KB7D
Experimental: as §1, §2, §3

[4] = test system: HONECis-6; assay: Cell growth inhibition assay on drug-resistant line HONECis-6; settings: 72 h, read-out: Cytotoxicity HONECis -6
Experimental: as §1, §2, §3

[5] = test system: KB100; assay: Cell growth inhibition assay on drug-resistant line KB100; settings: Homo sapiens, 72 h, read-out: Cytotoxicity KB100
Experimental: as §1, §2, §3

[6] = test system: KB100R; assay: Cell growth inhibition assay on line KB100R; settings: Homo sapiens, 72 h, read-out: Cytotoxicity KB100R
Experimental: as §1, §2, §3

[7] = test system: KB7DR; assay: Cell growth inhibition assay on line KB7DR; settings: Homo sapiens, 72 h, read-out: Cytotoxicity KB7DR
Experimental: as §1, §2, §3

[8] = test system: KBtaxol-5; assay: Cell growth inhibition assay on drug-resistant line KBtaxol-5; settings: Homo sapiens, 72 h, read-out: Cytotoxicity KBtaxol -5
Experimental: as §1, §2, §3

[9] = test system: A549 lung cell line; assay: Cell growth inhibition assay (cytotoxicity), A549; format: cell-based; settings: Homo sapiens, Table 2, MTS, 72 h
Experimental: (§4) In addition, indole compounds described in the "Summary" section were also tested on the A549 lung cell line, MESSA uterine cell line, MKN45 stomach cell line, SW480 colon cell line, NUGC3 stomach cell line, and MESSA/DX5 uterine cell line.

[10] = test system: MESSA uterine cell line; assay: Cell growth inhibition assay (cytotoxicity), MESSA; format: cell-based; settings: Homo sapiens, MES-SA, Table 2, MTS, 72 h
Experimental: as §4

[11] = test system: MKN45 stomach cell line; assay: Cell growth inhibition assay (cytotoxicity), MKN45; format: cell-based; settings: Homo sapiens, MKN-45, Table 2, MTS, 72 h
Experimental: as §4

[12] = test system: SW480 colon cell line; assay: Cell growth inhibition assay (cytotoxicity), SW480; format: cell-based; settings: Homo sapiens, Table 2, MTS, 72 h
Experimental: as §4

[13] = test system: NUGC; assay: Cell growth inhibition assay (cytotoxicity), NUGC; format: cell-based; settings: Homo sapiens, Table 2, Stomach, MTS, 72 h
Experimental: as §4

[14] = test system: MCF-7 breast carcinoma cells; assay: Cell growth inhibition assay (cytotoxicity), MCF7; format: cell-based; settings: Homo sapiens, Table 2, MTS, 72 h
Experimental: In one assay, an indole compound is tested for its cytotoxicity on MCF-7 cells (a breast carcinoma cell line). More specifically, cells are incubated with a test compound for 24 hr. The cytotoxic effect can be determined using the MTS (3-(4,5-dimethylthiazol-2-yl)-5-(3-carboxymethoxyphenyl)-2-(4-sulfophenyl)-2H-tetrazolium, inner salt) assay method described in Goodwin et al. (1995, J. Immunol. Methods. 179: 95-103). Cytotoxicity of the test compound is expressed in terms of IC50 values (i.e., the concentration of the test compound which achieves a half-maximal inhibition of cell growth).

[15] = test system: MESSA/DX5 uterine cell line; assay: Cell growth inhibition assay (cytotoxicity), MESSA/DX5; format: cell-based; settings: Homo sapiens, MES-SA/Dx5, Table 2, MTS, 72 h
Experimental: as §4

[16] = test system: Human MKN45 cancer cells; assay: Tumor regression model, MKN45 xenograft; format: in vivo, Male CD 1 nude mice
Experimental: (§5) Tumor Regression Models: The procedures of cancer cell implantation were similar to those previously reported in Chen et al., Cancer Res., (1998) 58:2777-2783, with modifications. Male CD 1 nude mice (5~6 weeks old) were purchased from Charles River Laboratories (Wilmington, MA, USA). Human MKN45 and KB cancer cells were maintained in RPMI 1640 plus 10% fetal bovine serum. Each animal was subcutaneously implanted with 5×10^5 MKN45 or 1×10^6 KB cells in 0.1 ml at one flank. Tumor growth was examined three times a week after implantation. The volume of tumor was measured with a caliper and calculated as 1/2×length×width^2 in mm^3. Test compounds were dissolved completely in a vehicle mixture of dimethyl sulfoxide:cremophor:saline (1:4:15). When the size of a growing tumor reached approximately 100 mm^3, the mice were treated with test compounds intravenously from tail veins at a concentration of 50 mg/kg daily for two weeks. Mice in a control group were treated with the solvent vehicle only. Tumor sizes and body weights were measured twice a week and after the mice were sacrificed.

[17] = test system: Human KB cancer cells; assay: Tumor regression model, KB xenograft; format: in vivo, Male CD 1 nude mice; settings: Compound 1 and cisplatin together vs cisplatin alone
Experimental: as §5

[18] = test system: HONE-1; assay: Cell growth inhibition assay (cytotoxicity), HONE-1 cell line; settings: Homo sapiens, HONE1, 72 h

| Structure (SMILES) | IC50 [1] | IC50 ([2]; Homo sapiens, KB-VIN10, 72 h) | IC50 [3] | IC50 ([4]; Homo sapiens) | IC50 [5] | IC50 [7] | IC50 [8] | IC50 ([18]; read-out: Cytotoxicity HONE -1) | also measured |
| --- | --- | --- | --- | --- | --- | --- | --- | --- | --- |
| COc1ccc2c(C(=O)c3cc(OC)c(OC)c(OC)c3)c[nH]c2c1 [Compound 1, (6-methoxy-1H-indol-3-yl)-(3,4,5-trimethoxy-phenyl)-methanone] | 0.006 µM | 0.007 µM | 0.004 µM | 0.0045 µM | 0.008 µM | 0.006 µM | 0.007 µM | 0.004 µM | IC50 [6]: 0.012 µM; IC50 [9]: 0.017 µM; IC50 [10]: 0.007 µM; IC50 [11]: 0.004 µM; IC50 [12]: 0.003 µM; IC50 [13]: 0.003 µM; IC50 [14]: 0.0076 µM; IC50 [15]: 0.0038 µM; activity in inhibiting tumor growth, administered together with cisplatin ([16]; Compound 1 and cisplatin together vs cisplatin alone): higher activity in inhibiting tumor growth than cisplatin administered alone; activity in inhibiting tumor growth ([16]; intravenously 50 mg/kg daily for two weeks, compared with cisplatin): higher activity in inhibiting tumor growth than cisplatin; activity in inhibiting tumor growth, administered together with cisplatin [17]: higher activity in inhibiting tumor growth than cisplatin administered alone; IC50 ([18]; read-out: Cytotoxicity HONE-1): 0.004 µM |
| CC[C@]1(O)C[C@H]2CN(CCc3c([nH]c4ccccc34)[C@@](C(=O)OC)(c3cc4c(cc3OC)N(C=O)[C@H]3[C@@](O)(C(=O)OC)[C@H](OC(C)=O)[C@]5(CC)C=CCN6CC[C@]43[C@@H]65)C2)C1 [Vincristine, reference compound] | 0.001 µM | 0.043 µM | 1.92 µM | 0.0006 µM | – | 0.337 µM | – | 0.0005 µM | – |
| CC(=O)O[C@H]1C(=O)[C@@]2(C)[C@H]([C@H](OC(=O)c3ccccc3)[C@]3(O)C[C@H](OC(=O)[C@H](O)[C@@H](NC(=O)c4ccccc4)c4ccccc4)C(C)=C1C3(C)C)[C@]1(OC(C)=O)CO[C@@H]1C[C@@H]2O [Taxol, paclitaxel, reference compound] | 0.01 µM | – | – | – | – | – | 0.08 µM | – | – |
| COc1ccc2c(C(=O)c3cc(OC)c(OC)c(OC)c3)cn(C(=O)OC(C)(C)C)c2c1 [Compound 6, 6-methoxy-3-(3,4,5-trimethoxy-benzoyl)-indole-1-carboxylic acid tert-butyl ester] | 0.013 µM | 0.0096 µM | 0.008 µM | 0.019 µM | 0.018 µM | 0.015 µM | 0.037 µM | 0.019 µM | IC50 [6]: 0.018 µM |
| CC[C@@]1(O)C(=O)OCc2c1cc1n(c2=O)Cc2cc3ccccc3nc2-1 [CPT, camptothecin] | 0.026 µM | 0.4 µM | 0.133 µM | – | 1.29 µM | – | – | – | – |
| COc1cc([C@@H]2c3cc4c(cc3[C@@H](O[C@@H]3O[C@@H]5CO[C@@H](C)O[C@H]5[C@H](O)[C@H]3O)[C@H]3COC(=O)[C@H]23)OCO4)cc(OC)c1O [VP-16] | 0.5 µM | – | 44 µM | – | – | 3.5 µM | – | – | – |
| N.N.[Cl][Pt][Cl] [Cisplatin, reference compound] | – | – | – | – | – | – | – | – | IC50 ([2]; Table 1, Vin. Res, MTS, 72 h): 0.005 µM; IC50 ([4]; Table 1, Cis Res., MTS): 15 µM |
